# Data from US20060154252A1, “Methods and composition for identifying therapeutic agents of atherosclerotic plaque lesions” (priority 2002, published 2006).
# “Also recorded” adds a separate entry of the source.
# System: Differentiated-THP-1
# Test: Vesicle formation in the presence of fatty acids (Nile Red staining)
# Assay type: cell-based
# Settings: 200 μM albumin-coupled fatty acid, 24 hours, differentiated macrophage permanent cell line
# Description: Fatty acids can be prepared according to Spector A A and Hoak J C, (1969 Anal. Biochem, 32: 297-302): Breifly, 100 μmol of fatty acid (12:0, 16:0, 18:0 and 20:0) can be dissolved in 7.5 ml of hexane containing 400 mg of Celite (Sigma). The solvent is then evaporated under nitrogen by continuous magnetic stirring. The fatty acid-coated particles are then mixed with fatty acid free albumin, in serum free medium for 1 hour at room temperature under nitrogen. After centrifugation, the supernatnts containing fatty acid coupled to albumin is conserved.
# Vesicle formation in the presence of fatty acids was induced as follows: briefly, THP1 differentiation was induced in a medium supplemented with 10^−7 M of phorbol 12-myristate-13-acetate (Sigma) for 24 hours at 37° C., 5% CO2. Differentiated-THP-1 was incubated with or without 200 μM of fatty acid-BSA complexes for 24 hours at 37° C., 5% CO2. After washing and paraformaldhehyde fixation, cells were stained with Nile Red (1 μg/ml) and Hoechst 33342 (10 μg/ml) solution for 10 minutes at RT. After washing, images of cells staining with Nile Red and Hoechst 33342 were automatized captured using a fluorescence microscope controlled by MetaMorph Software (Universal Imaging) and coupled with a CCD camera. After images analysis, results were expressed as the sum of Nile red intensity per cells number.
compound,measurement,value
CCCCCCCCCCCCCCCCCC(=O)O [stearic acid],induction of lipid vesicles / foam cell formation (FIG. 9),Formation of foam cells; also recorded: induction of lipid vesicles
